From US7662857B2, “Diagnostic agents for pancreatic exocrine function” (Tokyo Gas Company Limited, priority 2001, dated 2010) come the findings set out here.

Series [1] relates to pancreatic exocrine function. Briefly: 13C-dipeptide breath test in normal rats (Δ13C in exhaled CO2 after oral administration). The format is in vivo, rat. Particulars: for Δ^13C(‰) peak value / Peak time: oral 35 μmol/kg (5 ml/kg); for Δ^13C(‰) peak value: exhaled CO2; for Δ^13C(‰) peak value compared with the peak value of Bz-Ala-(^13C-Ala)-ONa: comparison in words; for Δ^13C(‰) value at 5 min after the administration / Δ^13C(‰) value at 10 min after the administration / Δ^13C(‰) value at 15 min after the administration / Δ^13C(‰) value at 20 min after the administration: normal rats, mean±SD. As for the experimental part:
(§1) Overnight-fasted rats (male, Wistar, 8-week old) in the awake state were individually fixed in a rat holder of a microwave irradiation apparatus. The breath was collected at a rate of about 100 to 300 ml/min using a stroke pump (Variable Stroke Pump VS-500; Shibata Kagaku Kogyo), and the CO2 concentration therein was maintained at about 3%. A Perma Pure drier (MD-050-12P; Perma Pure INC.) was set between the rat holder and the stroke pump to remove water vapor from the breath. When the CO2 concentration was stabilized, the rat was temporarily released from the rat holder. A ^13C-labeled dipeptide or a sodium salt thereof each dissolved in distilled water was administered to the stomach of the rat using an oral probe [dose: 35 μmol/kg (5 ml/kg)]. The breath was sampled with a syringe every 5 min until up to 20 min. A 15 ml sample was transferred from the syringe into a vacuum vial (10 ml), sealed and subjected to automated analysis by GC-MS (Breath MAT) [FinniganMAT]. Δ^13C(‰) was calculated from δ^13C values which are ^13C values of a sample (i.e. differences from the standard substance PDB) using the following formula. Δ^13C(‰)=(δ^13C)tmin−((δ^13C)0 min <Breath MAT Measuring Conditions>
Apparatus: Breath MAT plus (Finningan)
Using Ac-Met-(^13C-Ala)-ONa, Z-Met-(^13C-Ala)-ONa, Boc-Met-(^13C-Ala)-ONa or Boc-Phe-(^13C-Ala)-ONa [dose: 35 μmol/kg (5 ml/kg)], ^13C-breath tests were carried out in the same manner as in Example 12. The resultant Δ^13C(‰) peak values were compared with the Δ^13C(‰) peak value in the Bz-Ala-(^13C-Ala)-ONa breath test.
(§2) As in Example 12, Bz-Phe-(^13C-Ala)-ONa [dose: 12.6 mg/kg (35 μmol/kg)], Bz-Gln-(^13C-Ala)-ONa [dose: 12.0 mg/kg (35 μmol/kg)], Bz-Val-(^13C-Ala)-ONa [dose: 11.0 mg/kg (35 μmol/kg)], Bz-Tyr-(^13C-Ala)-ONa [dose: 13.2 mg/kg (35 μmol/kg)], Bz-Met-(^13C-Ala)-ONa [dose: 12.1 mg/kg (35 μmol/kg)], Bz-Ser-(^13C-Ala)-ONa [dose: 10.6 mg/kg (35 μmol/kg)], Bz-Thr-(^13C-Ala)-ONa [dose: 11.0 mg/kg (35 μmol/kg)] or Boc-Phe-(^13C-Ala)-ONa [dose: 8.84 mg/kg (24.6 μmol/kg)] was administered orally to normal rats and chronic pancreatitis rats. Then, the time course of the degree of increase of the ^13C concentration in exhaled CO2 (Δ^13C(‰)) was measured.

Series [2] has as its system pancreatic exocrine function. Briefly: 13C-dipeptide breath test in chronic pancreatitis rats (oleic acid injected into pancreatic duct). Particulars: mean±SD. Type of series: in vivo, rat. The method, then:
as §1
Chronic pancreatitis rats were created according to the method of Mundlos et al., Pancreas 1:29 (1986). Oleic acid was injected into the pancreatic duct of 5-week old Wistar male rats. After breeding for 3 weeks, they were used in ^13C-dipeptide breath tests.
as §2

[3] abbreviates: Table 1, overnight-fasted Wistar rats.
Setting [4] is: Table 1, overnight-fasted Wistar rats, peak in time course of Δ13C(‰) up to 20 min.

With `C[C@H](NC(=O)[C@H](CC(N)=O)NC(=O)c1ccccc1)[13C](=O)[O-].[Na+]` [Na salt of Bz-Asn-(^13C-Ala), reference compound], the “Δ^13C(‰) peak value” in series [1] (setting [3]) was 41.74 ‰. Also, the “Peak time” value in series [1] (setting [4]) was found to be 15 min.
In the case of `C[C@H](NC(=O)[C@H](CCCCN)NC(=O)c1ccccc1)[13C](=O)O` [Bz-Lys-(^13C-Ala), reference compound], in series [1] (setting [3]), the “Δ^13C(‰) peak value” was 38.57 ‰. In series [1] (setting [4]), the “Peak time” value is 15 min.
The corresponding values for `C[C@H](NC(=O)[C@H](CCCNC(=N)N)NC(=O)c1ccccc1)[13C](=O)O` [Bz-Arg-(^13C-Ala), reference compound] are 42.83 ‰ and 15 min.
The corresponding values for `C[C@H](NC(=O)[C@H](CS)NC(=O)c1ccccc1)[13C](=O)[O-].[Na+]` [Na salt of Bz-Cys-(^13C-Ala), reference compound] are 31.52 ‰ and 10 min.
Take `CSCC[C@H](NC(C)=O)C(=O)N[C@@H](C)[13C](=O)[O-].[Na+]` [Na salt of Ac-Met-(^13C-Ala), acetyl-L-methionyl-^13C-L-alanine]: in series [1] (Table 2, rats), the “Peak time” value is 15 min and the “Δ^13C(‰) peak value” is 63.15 ‰. Moreover, the “Δ^13C(‰) peak value compared with the peak value of Bz-Ala-(^13C-Ala)-ONa” value in series [1] (rats, oral 35 μmol/kg) is listed as “higher”.
Take `CSCC[C@H](NC(=O)c1ccccc1)C(=O)N[C@@H](C)[13C](=O)[O-].[Na+]` [Na salt of Bz-Met-(^13C-Ala), N-benzoyl-L-methionyl-^13C-L-alanine]: in series [2] (oral 35 μmol/kg), the “Δ^13C(‰) value at 5 min after the administration” value (from here on “Δ^13C(‰) value at 5 min”) is 1.52±1.47 ‰, the “Δ^13C(‰) value at 10 min after the administration” value (“Δ^13C(‰) value at 10 min” below) was 7.69±5.15 ‰, the “Δ^13C(‰) value at 15 min after the administration” value (“Δ^13C(‰) value at 15 min” below) is on record as 14.59±8.50 ‰ and the “Δ^13C(‰) value at 20 min after the administration” value (“Δ^13C(‰) value at 20 min” below) is 20.25±9.43 ‰. Besides, the “Δ^13C(‰) peak value” in series [1] (setting [3]) is recorded as 48.88 ‰. In series [1] (setting [4]), the “Peak time” value is recorded as 10 min. Moreover, in series [1] (oral 35 μmol/kg), the “Δ^13C(‰) value at 5 min” value is recorded as 19.76±10.16 ‰, the “Δ^13C(‰) value at 10 min” value is recorded as 48.88±17.45 ‰, the “Δ^13C(‰) value at 15 min” value is reported as 45.53±8.00 ‰ and the “Δ^13C(‰) value at 20 min” value is 38.58±3.79 ‰. The “Δ^13C(‰) peak value compared with the peak value of Bz-Ala-(^13C-Ala)-ONa” value in series [1] (rats, oral 35 μmol/kg) is “higher”.
As to `C[C@H](NC(=O)[C@H](Cc1ccccc1)NC(=O)OC(C)(C)C)[13C](=O)[O-].[Na+]` [Na salt of Boc-Phe-(^13C-Ala), t-butyloxycarbonyl-L-phenylalanyl-^13C-L-alanine], in series [2] (oral 8.84 mg/kg (24.6 μmol/kg)), the “Δ^13C(‰) value at 5 min” value is reported as 0.74±0.54 ‰, the “Δ^13C(‰) value at 10 min” value was 3.43±1.46 ‰, the “Δ^13C(‰) value at 15 min” value is given as 6.36±2.67 ‰ and the “Δ^13C(‰) value at 20 min” value is given as 10.16±3.95 ‰. In series [1] (Table 2, rats), the “Peak time” value is listed as 20 min and the “Δ^13C(‰) peak value” is given as 46.06 ‰. Moreover, in series [1] (oral 8.84 mg/kg (24.6 μmol/kg)), the “Δ^13C(‰) value at 5 min” value is reported as 5.02±3.79 ‰, the “Δ^13C(‰) value at 10 min” value is listed as 24.36±7.52 ‰, the “Δ^13C(‰) value at 15 min” value was 28.13±4.43 ‰ and the “Δ^13C(‰) value at 20 min” value was 25.09±2.00 ‰. Also, the “Δ^13C(‰) peak value compared with the peak value of Bz-Ala-(^13C-Ala)-ONa” value in series [1] (rats, oral 35 μmol/kg) is listed as “higher”.
Regarding `C[C@H](NC(=O)[C@@H](NC(=O)c1ccccc1)[C@@H](C)O)[13C](=O)[O-].[Na+]` [Na salt of Bz-Thr-(^13C-Ala), N-benzoyl-L-threonyl-^13C-L-alanine], in series [2] (oral 35 μmol/kg), the “Δ^13C(‰) value at 10 min” value is recorded as 12.67±19.74 ‰ and the “Δ^13C(‰) value at 15 min” value was 19.78±24.70 ‰. Also, in series [1] (setting [3]), the “Δ^13C(‰) peak value” is listed as 47.36 ‰. In addition, the “Peak time” value in series [1] (setting [4]) was found to be 10 min. Besides, in series [1] (oral 35 μmol/kg), the “Δ^13C(‰) value at 10 min” value is 47.36±10.99 ‰ and the “Δ^13C(‰) value at 15 min” value is 47.11±5.67 ‰. Further, the “Δ^13C(‰) peak value compared with the peak value of Bz-Ala-(^13C-Ala)-ONa” value in series [1] (rats, oral 35 μmol/kg) is given as “higher”.
As for `C[C@H](NC(=O)[C@H](Cc1cnc[nH]1)NC(=O)c1ccccc1)[13C](=O)[O-].[Na+]` [Na salt of Bz-His-(^13C-Ala), reference compound], the “Δ^13C(‰) peak value” in series [1] (setting [3]) is given as 36.17 ‰. In series [1] (setting [4]), the “Peak time” value was 20 min.
Regarding `C[C@H](NC(=O)[C@H](CC(=O)O)NC(=O)c1ccccc1)[13C](=O)[O-].[Na+]` [Na salt of Bz-Asp-(^13C-Ala), reference compound], the “Δ^13C(‰) peak value” in series [1] (setting [3]) is 11.47 ‰. In addition, the “Peak time” value in series [1] (setting [4]) stood at 20 min.
For `C[C@H](NC(=O)[C@H](Cc1c[nH]c2ccccc12)NC(=O)c1ccccc1)[13C](=O)[O-].[Na+]` [Na salt of Bz-Trp-(^13C-Ala), reference compound] the same measures were 39.76 ‰ and 15 min.
Consider `C[C@H](NC(=O)CNC(=O)c1ccccc1)[13C](=O)[O-].[Na+]` [Na salt of Bz-Gly-(^13C-Ala), reference compound], for which the “Δ^13C(‰) peak value” in series [1] (setting [3]) was 32.14 ‰. In addition, the “Peak time” value in series [1] (setting [4]) is reported as 20 min.
For `CC[C@H](C)[C@H](NC(=O)c1ccccc1)C(=O)N[C@@H](C)[13C](=O)[O-].[Na+]` [Na salt of Bz-Ile-(^13C-Ala), reference compound] the same measures were 39.82 ‰ and 20 min.
Turning to `CC(C)C[C@H](NC(=O)c1ccccc1)C(=O)N[C@@H](C)[13C](=O)[O-].[Na+]` [Na salt of Bz-Leu-(^13C-Ala), reference compound], the “Δ^13C(‰) peak value” in series [1] (setting [3]) is given as 42.77 ‰. Besides, the “Peak time” value in series [1] (setting [4]) was 15 min.
In the case of `CSCC[C@H](NC(=O)OC(C)(C)C)C(=O)N[C@@H](C)[13C](=O)[O-].[Na+]` [Na salt of Boc-Met-(^13C-Ala), t-butyloxycarbonyl-L-methionyl-^13C-L-alanine], in series [1] (Table 2, rats), the “Peak time” value is 15 min and the “Δ^13C(‰) peak value” is on record as 55.50 ‰. In series [1] (rats, oral 35 μmol/kg), the “Δ^13C(‰) peak value compared with the peak value of Bz-Ala-(^13C-Ala)-ONa” value was “higher”.
Take `CSCC[C@H](NC(=O)OCc1ccccc1)C(=O)N[C@@H](C)[13C](=O)[O-].[Na+]` [Na salt of Z-Met-(^13C-Ala), benzyloxycarbonyl-L-methionyl-^13C-L-alanine]: in series [1] (Table 2, rats), the “Peak time” value turned out to be 15 min and the “Δ^13C(‰) peak value” is 48.71 ‰. The “Δ^13C(‰) peak value compared with the peak value of Bz-Ala-(^13C-Ala)-ONa” value in series [1] (rats, oral 35 μmol/kg) is reported as “higher”.
For the molecule `C[C@H](NC(=O)c1ccccc1)C(=O)N[C@@H](C)[13C](=O)[O-].[Na+]` [Na salt of Bz-Ala-(^13C-Ala), reference compound], the “Δ^13C(‰) peak value” is reported as 45.88 ‰ in series [1] (setting [3]) and 45.88 ‰ in series [1] (Table 2, rats). Besides, the “Peak time” value in series [1] (setting [4]) was 10 min; in series [1] (Table 2, rats), 10 min.
